From patent US10058582B2, “Therapeutic molecules and deviates for CRC” (ANTARTINA LLC, priority 2015, dated 2018)

Legend:
CT26 cells [1] = test: Cell viability assay (MTS, 490 nm); format: cell-based, mouse
Description: Mouse CT26 tumor cell line, an undifferentiated murine colorectal carcinoma (CRC) cell line established from a N-nitroso-N-methylurethan-induced transplantable tumor in BALB/c (H-2d) mice and BNL hepatoma cell line was kindly provided by Prof. Jesús Prieto, University of Navarra, Spain. CT26 and BNL were cultured in complete DMEM (2 mM glutamine, 100 U/ml penicillin, […] streptomycin) and 10% heat-inactivated fetal bovine serum (FBS) and incubated at 37° C. in a 5% CO2 humidified atmosphere.
Antartina was dissolved in 0.1% DMSO and sterile water an injected intraperitoneally (i.p.) at the doses indicated or used for in vitro assays at different concentrations (0.1; 1 and 10 µg/ml). Fluorouracil Rontag® (5-Fu) 500 mg was diluted in saline solution at indicated concentrations (0.1; 1 and 10 µg/ml).
CT26 cells were plated onto 96-well plates at a density of 5×10^3 cells/well and cultured with DMEM or Antartina at different doses (0.1-1-10 […]at different doses (0.1-1-10 DMEM or y of 5×10t indicated concentrations (0.1; 1 and 10 nd 10 ions (0.1; 1 and 10 mental for 4 hour after which the absorbance of each well was read at 490 nm. All assays were performed in quadruplicate, and each assay was repeated twice.

Toxicity studies = format: in vivo, BALB/c mice
Description: BALB/c mice untreated or treated with Antartina (5 mg/kg and 50 mg/kg) were used to assess its toxicology profile. […] Aspartate aminotransferase (AST) and alanine aminotransferase (ALT) levels were measured by standard colorimetric methods. Also, healthy mice or mice receiving Antartina were sacrificed to collect liver, spleen, and kidney samples. Paraffin embedded tissues were stained with H & E for pathological analysis.

[2] = system: CT26 cells injected into the liver; test: Liver metastatic CRC model; format: in vivo, BALB/c mice
Description: BALB/c mice received an intra-hepatic inoculation of 5×10^5 CT26 cells (day 0). The mice were distributed in experimental groups and treated with saline (control group, n=6); Antartina (5 mg/kg i.p., n=8 day 8). At day 18, animals were sacrificed and the volume of metastatic nodules was measured with caliper.

BNL cells = test: CTL cytotoxicity assay (LDH release), BNL targets; format: cell-based, mouse; conditions: splenocytes of treated mice, in vitro
Description: (§1) viable splenocytes from control or treated mice (10×10^6) were stimulated in vitro with mitomycin C-treated CT26 cells (10×10^5 cells/well in 24-well-plates). On day 5, cells were harvested and washed, adjusted to 2×10^6/mL, and added to 96-well-plate (effector cells). To determine specific CTL cytotoxicity activity CT26 and BNL cells were used as target at 2×10^5/mL. After incubation for 4 h at 37° C., plates were centrifuged and cell-free supernatants were obtained. Levels of released LDH were evaluated with the LDH Cytotoxicity Detection Kit (Sigma-Aldrich) following the manufacturer's instructions and expressed as percentage of lysis.

CT26 cells [3] = test: CTL cytotoxicity assay (LDH release), CT26 targets; format: cell-based, mouse; conditions: splenocytes of treated cured mice, p<0.001
Description: as §1

CT26 CRC cells = test: Long-term protection study (re-challenge); format: in vivo, BALB/c mice; conditions: 3 weeks after complete tumor regression, 5×10^5 cells left flank
From the text: to evaluate protective immunity, animals that were free of disease at 3 wk after complete regression of primary tumors (7 week after first tumor inoculation) were challenged with 5×10^5 CT26 cells on the left flank.

[4] = system: tumor-infiltrating CD4+ and CD8+ T cells; test: Flow cytometry of tumor-infiltrating T lymphocytes; format: in vivo, BALB/c mice; conditions: day 18, p<0.05
Description: previously, single cell suspensions were obtained by mechanical disruption of tumor samples treated with 0.5 mg/ml Collagenase I at 37° C. for 45 min and washed with PBS 1% bovine serum albumin. Then, tumor cells were stained with PECy5-anti-CD4 (BD Biosciences) and AlexaFluor488-anti-CD8 (BD Biosciences) and their respective isotypes and subjected to flow cytometry (FACSAria, BD). Data were analyzed using Cyflogic v. 1.2.1 software.

CT26 cells [5] = test: Cell cycle analysis (propidium iodide, flow cytometry); format: cell-based, mouse; conditions: 48 h and 72 h, Antartina 10 µg/ml
Description: 1×10^6 CT26 cells cultured with DMEM or Antartina were collected washed in PBS and fixed in a mixture of ice-cold 70% (v/v) ethanol, FBS and distill water. Fixed cells were centrifuged and stained with propidium iodide (PI) solution (50 μg/ml PI, 180 U/ml RNAse). DNA content was determined using a FACS Accuri 6 laser flow cytometer (Becton Dickinson).

hepatocellular carcinoma = test: Hepatocellular carcinoma in mice with advanced fibrosis (preliminary, data not shown); format: in vivo
CT26 CRC tumors = test: Subcutaneous CRC model; format: in vivo, BALB/c mice; conditions: for microscopic examination of tumor sections (H & E): 10 and 15 days after treatment
Description: Subcutaneous CRC model: CT26 cells were injected at a dose of 5×10^5 cells subcutaneously (s.c.) into the right flank of BALB/c mice (day 0). Tumors were allowed to reach approximately 90 mm^3 in size before treatment was started. Animals were distributed in different groups and then treated with Antartina or 0.1% DMSO in sterile water intraperitoneal (i.p.) (control group, n=6); Antartina (5 or 50 mg/kg i.p., day 8, n=9). Tumor growth was assessed by caliper measurement.
tumor samples from experimental groups were obtained 10 and 15 days after treatment and fixed in 10% phosphate-buffered formalin. Five-micrometer sections from paraffin-embedded tissues were stained with hematoxylin and eosin (H & E) for histologic examination.

SMILES: COc1cc(-c2cc(=O)c3c(O)cc(O[C@@H]4O[C@H](CO)[C@@H](O)[C@H](O)[C@H]4O)cc3o2)cc(OC)c1O [Antartina, Tricin 7-O-β-D-glucopyranoside]
- CT26 cell survival (CT26 cells [1]; 48 h, highest concentration, p<0.05): inhibits CT26 cell survival
- cell viability reduced to (CT26 cells [1]; 72 h, 10 µg/ml, p<0.001): ~50%
- cell viability reduced (CT26 cells [1]; 72 h, 1 µg/ml, p<0.05): more than 20%
- H & E stained tissues (liver, spleen, kidney) (Toxicity studies; 5 mg/kg and 50 mg/kg): no signs of toxicity
- body weight gain in both groups (Toxicity studies; 5 and 50 mg/kg): similar
- general health of animals (Toxicity studies; 5 and 50 mg/kg): remained healthy
- tolerability, clinical and biochemical toxicity (AST, ALT) (Toxicity studies; 5 and 50 mg/kg, observed more than 30 days): well tolerated with no evident signs of clinical and biochemical toxicity
- treated animals showing a reduction in metastases growth ([2]; 5 mg/kg i.p.): more than 60%
- mean of tumor volume ([2]; 5 mg/kg i.p. from day 8, day 18 after inoculation, control 1508±204): 955±275 mm^3
- survival vs controls ([2]; 5 mg/kg i.p., liver metastatic model, p<0.01): superior
- CTL activity against BNL cells (BNL cells): no CTL activity
- specific CTL activity against CT26 cells (CT26 cells [3]): potent activation of specific cytotoxic T lymphocytes
- specific CTL activity against CT26 cells (CT26 cells [3]; listed as Antarina): potent CTL activity against CT26 cells
- re-challenge of cured animals with CT26 cells (CT26 CRC cells): rejected in all animals
- proportion of tumor-infiltrating CD4+ and CD8+ T cells vs control [4]: increased proportion
- cell cycle pattern (CT26 cells [5]): arrested at G2/M phase
- cell cycle pattern (CT26 cells [5]; listed as Antarina): halted CT26 cells at the transition from G2 to M-phase
- antitumoral activity in vivo against hepatocellular carcinoma (hepatocellular carcinoma): antitumoral activity
- tumor growth vs saline control (CT26 CRC tumors; 5 mg/kg i.p., from day 8 three times a week, over 30 days): significant inhibition of tumor growth
- survival rate vs controls (CT26 CRC tumors; 5 mg/kg i.p., s.c. CT26 model): significantly increased
- complete tumor regression, percent of mice (CT26 CRC tumors; 50 mg/kg i.p.): more than 30%
- tumor volume (CT26 CRC tumors; 50 mg/kg i.p. from day 8): potent tumor volume reduction
- complete tumor regression, mice of group (CT26 CRC tumors; 50 mg/kg i.p., n=9): 3/9
- animal survival vs saline control (CT26 CRC tumors; 50 mg/kg i.p., p<0.01): significantly increased
- microscopic examination of tumor sections (H & E) (CT26 CRC tumors; 50 mg/kg i.p.): extensive areas of necrosis and marked mononuclear cells infiltration
- microscopic examination of tumor sections (H & E) (CT26 CRC tumors; 50 mg/kg i.p., listed as Antarina): intense mononuclear infiltrate and extensive areas of necrosis
